From patent publication US12011444B2, “N-substituted indole derivatives as PGE2 receptor modulators” (Idorsia Pharmaceuticals Ltd, priority 2015, dated 2024)

How the values were obtained:
[1] = target: PTRGER4 (EP4) (Homo sapiens (Human), UniProt P35408); assay: hEP4 b-arrestin assay (PathHunter HEK 293 PTGER4 b-arrestin cells); assay type: cell-based
Excerpt: (§1) The assay is using the PathHunter™ HEK 293 PTGER2 and PTGER4 b-arrestin cell lines from DiscoverX. The system is based on the Enzyme Fragment Complementation Technology. Two complementing fragments of the b-galactosidase enzyme are expressed within stably transfected cells. The larger portion of b-gal, termed EA for Enzyme Acceptor, is fused to the C-terminus of b-arrestin 2. The smaller fragment, termed ProLink™ tag, is fused to PTGER2 (EP2) or PTRGER4 (EP4) at the C-terminus. Upon activation, b-arrestin is recruited which forces the interaction of ProLink and EA, allowing complementation of the two fragments of b-gal and the formation of a functional enzyme which is capable of hydrolysing the substrate and generating a chemiluminescent signal.
(§2) 5000 cells per well of a 384 well plate (white with white bottom Greiner 781080) are seeded in 20 ul per well of GM. Plate is incubated at 37° C., 5% C02 for 24 hours.
Plate is pre-incubated 15 minutes at 37° C. Then five microliters of PGE2 (final conc. 20 nM) are transferred into the assay plate. Plate is incubated 120 minutes at 37° C.
(§3) Twelve μl of reagent are transferred to the assay plate and incubate for 1 hour at room temperature in the dark. Luminescence counts are read on a BMG Fluostar Optima reader according to manufacturer's instructions. For each compound concentration calculate of the percentage of activity compared to DMSO control value as average±STDEV.

[2] = target: PTGER2 (EP2) (Homo sapiens (Human), UniProt P43116); assay: hEP2 b-arrestin assay (PathHunter HEK 293 PTGER2 b-arrestin cells); assay type: cell-based
Chain of PTGER2 (EP2) (P43116 whole entry): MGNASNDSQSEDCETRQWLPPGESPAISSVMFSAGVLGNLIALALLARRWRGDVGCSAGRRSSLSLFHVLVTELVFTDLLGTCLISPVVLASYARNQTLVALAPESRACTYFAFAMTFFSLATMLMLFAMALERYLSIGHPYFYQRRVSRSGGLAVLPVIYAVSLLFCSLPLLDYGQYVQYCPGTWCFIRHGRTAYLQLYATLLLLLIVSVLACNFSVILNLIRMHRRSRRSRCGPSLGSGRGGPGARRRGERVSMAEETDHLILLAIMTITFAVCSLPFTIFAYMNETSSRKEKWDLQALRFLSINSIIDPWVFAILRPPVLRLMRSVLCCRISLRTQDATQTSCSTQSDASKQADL
Excerpt: as §1, §2
Plate is pre-incubated 15 minutes at 37° C. Then five microliters of PGE2 (final conc. 5 μM) are transferred into the assay plate. Plate is incubated 120 minutes at 37° C.
as §3, with “average±STDEV. (each concentration is measured in duplicate)” for “average±STDEV.”

[3] = hEP4 b-arrestin assay (values without asterisk)
[4] = hEP2 b-arrestin assay (values without asterisk)
[5] = antagonistic activity on hEP4, mean where measured multiple times
[6] = antagonistic activity on hEP2, mean where measured multiple times

Chain of PTRGER4 (EP4) (P35408 whole entry, looked up, the tested form may be a part): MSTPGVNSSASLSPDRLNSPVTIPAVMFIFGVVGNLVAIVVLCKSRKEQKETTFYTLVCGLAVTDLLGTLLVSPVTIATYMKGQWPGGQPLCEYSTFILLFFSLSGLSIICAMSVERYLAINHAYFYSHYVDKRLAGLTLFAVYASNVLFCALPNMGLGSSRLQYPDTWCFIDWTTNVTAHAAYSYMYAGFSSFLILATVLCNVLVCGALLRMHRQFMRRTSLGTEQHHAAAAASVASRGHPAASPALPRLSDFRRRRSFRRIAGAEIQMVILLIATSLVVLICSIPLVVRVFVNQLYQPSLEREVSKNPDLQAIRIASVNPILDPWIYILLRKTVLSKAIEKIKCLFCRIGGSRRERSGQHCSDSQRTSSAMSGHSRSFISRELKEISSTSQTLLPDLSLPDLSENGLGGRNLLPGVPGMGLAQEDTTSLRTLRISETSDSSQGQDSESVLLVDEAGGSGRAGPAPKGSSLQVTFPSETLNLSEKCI

Molecule | IC50 [1, 3] | IC50 [2, 4] | IC50 [1, 5] | IC50 [2, 6]
CCCc1cc(-c2cc(NCCn3c(C#N)cc4c(OC)ccc(F)c43)ncn2)cc(F)c1C(=O)O [Example 939, 4-{6-[2-(2-Cyano-7-fluoro-4-methoxy-indol-1-yl)-ethylamino]-pyrimidin-4-yl}-2-fluoro-6-propyl-benzoic acid] | 0.017 µM | 0.015 µM |  | 
CCOc1cc(-c2cc(NCCn3c(C)cc4c(C)c(F)cc(Cl)c43)ncn2)ccc1C(=O)O [compound 344, 4-{6-[2-(7-Chloro-5-fluoro-2,4-dimethyl-indol-1-yl)-ethylamino]-pyrimidin-4-yl}-2-ethoxy-benzoic acid] |  |  | 0.319 µM | 0.034 µM
Cc1ccc(F)c2c1cc(C)n2CCNc1cc(-c2ccc3ncccc3c2)ncn1 [compound 355] |  |  | 0.134 µM | 0.048 µM
COc1ccc(F)c2c1cc(C#N)n2CCNc1cc(-c2ccc(C(O)(O)C(F)(F)F)cc2)ncn1 [Example 1018, 7-Fluoro-4-methoxy-1-(2-{6-[4-(2,2,2-trifluoro-1,1-dihydroxy-ethyl)-phenyl]-pyrimidin-4-ylamino}-ethyl)-1H-indole-2-carbonitrile] | 0.069 µM | 0.094 µM |  | 
CCc1nc(-c2cc(NCCn3c(C)cc4c(OC)ccc(F)c43)ncn2)sc1C(=O)O [Example 1037, 4-Ethyl-2-{6-[2-(7-fluoro-4-methoxy-2-methyl-indol-1-yl)-ethylamino]-pyrimidin-4-yl}-thiazole-5-carboxylic acid] | 0.1 µM | 0.06 µM |  | 
COc1ccc(F)c2c1cc(C)n2CCNc1cc(-c2ccc(C(=O)O)cc2)ncn1 [compound 109] |  |  | 0.955 µM | 0.049 µM
COc1ccc(F)c2c1cc(C)n2CCNc1cc(-c2ccc(N3CCCC3=O)cc2)ncn1 [compound 318] |  |  | 0.894 µM | 0.338 µM
CCOC(=O)Cc1ccc(-c2cc(NCCn3c(C)cc4c(OC)ccc(F)c43)ncn2)cc1 [Example 897, (4-{6-[2-(7-Fluoro-4-methoxy-2-methyl-indol-1-yl)-ethylamino]-pyrimidin-4-yl}-phenyl)-acetic acid ethyl ester] | 0.453 µM | 0.38 µM |  | 
COc1cc2[nH]ncc2cc1-c1cc(NCCn2c(C#N)cc3c(OC)ccc(F)c32)ncn1 [Example 981, 7-Fluoro-4-methoxy-1-{2-[6-(6-methoxy-1H-indazol-5-yl)-pyrimidin-4-ylamino]-ethyl}-1H-indole-2-carbonitrile] | 0.058 µM | 0.059 µM |  | 
COc1cc(F)cc2c1cc(C)n2CCNc1cc(-c2cc(O)c(C(=O)O)s2)ncn1 [Example 800, 5-{6-[2-(6-Fluoro-4-methoxy-2-methyl-indol-1-yl)-ethylamino]-pyrimidin-4-yl}-3-hydroxy-thiophene-2-carboxylic acid] | 0.044 µM | 0.012 µM |  | 
COc1ccc(F)c2c1cc(C#N)n2CCNc1cc(-c2cnc3c(ccn3C)c2)ncn1 [Example 980, 7-Fluoro-4-methoxy-1-{2-[6-(1-methyl-1H-pyrrolo[2,3-b]pyridin-5-yl)-pyrimidin-4-ylamino]-ethyl}-1H-indole-2-carbonitrile] | 0.012 µM | 0.021 µM |  | 
CCOc1cc(-c2cc(NCCn3c(C#N)cc4c(OC)ccc(F)c43)ncn2)sc1C(=O)NC(C)C [Example 1027, 5-{6-[2-(2-Cyano-7-fluoro-4-methoxy-indol-1-yl)-ethylamino]-pyrimidin-4-yl}-3-ethoxy-thiophene-2-carboxylic acid isopropylamide] | 0.003 µM | 0.039 µM |  | 
CCOc1cc(-c2cc(NCCn3c(C)cc4c(OC)ccc(F)c43)ncn2)sc1C(=N)NO [Example 1052, 3-Ethoxy-5-{6-[2-(7-fluoro-4-methoxy-2-methyl-indol-1-yl)-ethylamino]-pyrimidin-4-yl}-N-hydroxy-thiophene-2-carboxamidine] | 0.007 µM | 0.003 µM |  | 
CCOc1cc(-c2cc(NCC(C)n3c(C)cc4c(OC)ccc(F)c43)ncn2)sc1C(=O)O (racemic) [Example 796, rac-3-Ethoxy-5-{6-[2-(7-fluoro-4-methoxy-2-methyl-indol-1-yl)-propylamino]-pyrimidin-4-yl}-thiophene-2-carboxylic acid] | 0.131 µM | 0.048 µM |  | 
CCOc1cc(-c2cc(NCCn3c(C)cc4c(OC)ccc(F)c43)ncn2)sc1NC(N)=O [Example 1075, (3-Ethoxy-5-{6-[2-(7-fluoro-4-methoxy-2-methyl-indol-1-yl)-ethylamino]-pyrimidin-4-yl}-thiophen-2-yl)-urea] | 0.049 µM | 0.007 µM |  | 
4-{6-[2-(2-Cyano-7-fluoro-4-methoxy-indol-1-yl)-ethylamino]-pyrimidin-4-yl}-phthalic acid 2-ethyl ester [Example 965] | 0.043 µM | 0.053 µM |  | 
CCOc1cc(-c2cc(NCCn3c(C#N)cc4c(OC)ccc(F)c43)ncn2)sc1C(=O)NC [Example 1023, 5-{6-[2-(2-Cyano-7-fluoro-4-methoxy-indol-1-yl)-ethylamino]-pyrimidin-4-yl}-3-ethoxy-thiophene-2-carboxylic acid methylamide] | 0.001 µM | 0.008 µM |  | 
CCOc1cc(C(=O)O)cc(-c2cc(NCCn3c(C#N)cc4c(OC)ccc(F)c43)ncn2)c1 [Example 1002, 3-{6-[2-(2-Cyano-7-fluoro-4-methoxy-indol-1-yl)-ethylamino]-pyrimidin-4-yl}-5-ethoxy-benzoic acid] | 0.031 µM | 0.02 µM |  | 
COc1ccc(F)c2c1cc(C)n2CCNc1cc(-c2ccc(-c3noc(C)n3)cc2)ncn1 [compound 303, [2-(7-Fluoro-4-methoxy-2-methyl-indol-1-yl)-ethyl]-{6-[4-(5-methyl-[1,2,4]oxadiazol-3-yl)-phenyl]-pyrimidin-4-yl}-amine] |  |  | 0.322 µM | 0.033 µM
COc1ccc(F)c2c1cc(C)n2CCNc1cc(-c2ccc3cn[nH]c3c2)ncn1 [compound 58, [2-(7-Fluoro-4-methoxy-2-methyl-indol-1-yl)-ethyl]-[6-(1H-indazol-6-yl)-pyrimidin-4-yl]-amine] |  |  | 0.477 µM | 0.022 µM
N#Cc1cc2cccc(F)c2n1CCNc1cc(-c2cc(C(F)(F)F)c(C(=O)O)s2)ncn1 [Example 859, 5-{6-[2-(2-Cyano-7-fluoro-indol-1-yl)-ethylamino]-pyrimidin-4-yl}-3-trifluoromethyl-thiophene-2-carboxylic acid] | 0.06 µM | 0.006 µM |  | 
COc1cccc2c1cc(C)n2CCNc1cc(-c2ccc(-c3noc(=O)[nH]3)cc2)ncn1 [compound 194, 3-(4-{6-[2-(4-Methoxy-2-methyl-indol-1-yl)-ethylamino]-pyrimidin-4-yl}-phenyl)-4H-[1,2,4]oxadiazol-5-one] |  |  | 0.172 µM | 0.01 µM
CCOc1cc(-c2cc(NCCn3c(C)cc4c(OC)ccc(F)c43)ncn2)sc1CO [Example 1031, (3-Ethoxy-5-{6-[2-(7-fluoro-4-methoxy-2-methyl-indol-1-yl)-ethylamino]-pyrimidin-4-yl}-thiophen-2-yl)methanol] | 0.019 µM | 0.003 µM |  | 
Cc1ccc(F)c2c1cc(C)n2CCNc1cc(-c2ccc(C(=O)O)c(CCC(C)C)c2)ncn1 [compound 369] |  |  | 0.238 µM | 0.087 µM
CCOc1cc(-c2cc(NCCn3c(C)cc4c(Cl)cc(Cl)cc43)ncn2)ccc1C(=O)O [compound 279] |  |  | 0.313 µM | 0.022 µM
COc1cc(-c2cc(NCCn3c(C)cc4c(C)ccc(F)c43)ncn2)ccc1C(=O)O [compound 129, 4-{6-[2-(7-Fluoro-2,4-dimethyl-indol-1-yl)-ethylamino]-pyrimidin-4-yl}-2-methoxy-benzoic acid] |  |  | 0.622 µM | 0.048 µM
CCOc1cc(-c2cc(NCCn3c(C)cc4c(OC)ccc(F)c43)ncn2)ccc1C(=O)CO [Example 1040, 1-(2-Ethoxy-4-{6-[2-(7-fluoro-4-methoxy-2-methyl-indol-1-yl)-ethylamino]-pyrimidin-4-yl}-phenyl)-2-hydroxy-ethanone] | 0.407 µM | 0.091 µM |  | 
Cc1cc2c(F)ccc(F)c2n1CCNc1cc(-c2ccc(C(=O)O)c(CC(C)C)c2)ncn1 [compound 332, 4-{6-[2-(4,7-Difluoro-2-methyl-indol-1-yl)-ethylamino]-pyrimidin-4-yl}-2-isobutyl-benzoic acid] |  |  | 0.588 µM | 0.005 µM
Cc1cc(F)cc2c1cc(C)n2CCNc1cc(-c2ccc(C(=O)O)c(C3CC3)c2)ncn1 [compound 354] |  |  | 0.772 µM | 0.032 µM
COc1ccc(Cl)c2c1cc(C)n2CCNc1cc(-c2cc(C)c(C(=O)O)c(C)c2)ncn1 [compound 287] |  |  | 0.963 µM | 0.183 µM
